According to patent US10538497B2, “Compounds as indoleamine 2,3-dioxygenase inhibitors” (Merck Sharp & Dohme Corp., priority 2015, dated 2020):

Legend:
[1] = target: T1, IDO1 (Homo sapiens (Human), UniProt P14902); assay: IDO1 Cellular Assay in Hela Cells Stimulated with IFNγ; type: cell-based; conditions: Hela cells stimulated with IFNγ 100 ng/mL; read-out: IDO1 HELA Cell Assay, IC50
[2] = target: T1, IDO1; assay: IDO1 Human Whole Blood Assay; type: cell-based; conditions: LPS and IFNγ 100 ng/mL, kynurenine by LC/MS/MS

T1 sequence (P14902 whole entry): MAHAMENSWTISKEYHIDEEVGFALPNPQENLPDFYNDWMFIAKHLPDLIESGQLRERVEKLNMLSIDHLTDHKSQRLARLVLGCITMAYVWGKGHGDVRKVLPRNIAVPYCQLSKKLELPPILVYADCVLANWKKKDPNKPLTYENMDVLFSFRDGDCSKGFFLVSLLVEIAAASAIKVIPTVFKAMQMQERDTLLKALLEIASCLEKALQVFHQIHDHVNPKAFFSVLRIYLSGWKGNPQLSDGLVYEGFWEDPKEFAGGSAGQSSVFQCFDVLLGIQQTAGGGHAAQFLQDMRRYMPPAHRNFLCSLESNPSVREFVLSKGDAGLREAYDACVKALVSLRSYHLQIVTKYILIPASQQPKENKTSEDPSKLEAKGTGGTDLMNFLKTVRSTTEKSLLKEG

Compound	IC50 [1]	IC50 [2]
O=C(CSc1nonc1/C(=N/O)Nc1ccc(F)c(Br)c1)NC[C@@H](O)CO [Example 42, (R)-2-((4-(N-(3-bromo-4-fluorophenyl)-N′-hydroxycarbamimidoyl)-1,2,5-oxadiazol-3-yl)thio)-N-(2,3-dihydroxypropyl)acetamide]	0.0343 µM	0.519 µM
NC(=O)NCCSc1nonc1/C(=N/O)Nc1ccc(F)c(Br)c1 [Example 46, N-(3-Bromo-4-fluorophenyl)-N′-hydroxy-4-((2-ureidoethyl)thio)-1,2,5-oxadiazole-3-carboximidamide]	0.0135 µM	0.239 µM
